Laboratory results from patent US20210347780A1, “CDPK1 INHIBITORS, COMPOSITIONS, AND METHODS RELATED THERETO” (Vyera Pharmaceuticals, LLC, priority 2018, published 2021).

Each molecule was assayed against T1, T. gondii CDPK1 (tgCDPK1) (Toxoplasma gondii, UniProt Q9BJF5) (assay: biochemical). Details: inhibition of T. gondii CDPK1; at least three independent replicates; read-out: tgCDPK1 IC50.
T1 sequence (Q9BJF5 1-507): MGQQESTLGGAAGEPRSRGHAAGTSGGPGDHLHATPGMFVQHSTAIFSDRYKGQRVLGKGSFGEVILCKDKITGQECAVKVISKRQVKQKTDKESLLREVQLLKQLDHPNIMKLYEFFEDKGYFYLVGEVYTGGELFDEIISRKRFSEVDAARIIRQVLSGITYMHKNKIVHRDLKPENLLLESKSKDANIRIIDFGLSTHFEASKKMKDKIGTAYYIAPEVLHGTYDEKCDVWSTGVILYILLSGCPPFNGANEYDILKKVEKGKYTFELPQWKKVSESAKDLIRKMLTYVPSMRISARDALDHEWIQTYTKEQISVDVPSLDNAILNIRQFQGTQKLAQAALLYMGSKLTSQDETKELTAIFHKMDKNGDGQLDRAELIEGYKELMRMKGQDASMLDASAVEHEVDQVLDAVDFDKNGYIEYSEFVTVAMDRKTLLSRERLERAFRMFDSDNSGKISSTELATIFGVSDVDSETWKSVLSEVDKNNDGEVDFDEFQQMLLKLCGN
Protocol: Certain of the compounds prepared as described above were assayed to determine their IC50 for inhibition of T. gondii CDPK1 (tgCDPK1). At least three independent replicates of the assay were conducted for each compound tested.

Row | SMILES | IC50
1 | Nc1ncnc2c1c(Oc1cc(Cl)ccn1)nn2C1CCC(F)(F)CC1 [Compound 261] | 35.3 nM
2 | Nc1ncnc2c1c(Oc1cccc(Cl)c1)nn2[C@H]1C[C@@H](O)C1 [Compound 152] | 27.3 nM
3 | Nc1ncnc2c1c(Oc1cc(C(F)(F)F)ccn1)nn2[C@H]1CC[C@H](CO)CC1 [Compound 243] | 10.3 nM
4 | Nc1ncnc2c1c(Oc1cc(C(F)(F)F)ccn1)nn2[C@H]1CC[C@@H](O)CC1 [Compound 231] | 18.6 nM
5 | COc1ccnc(Oc2nn([C@H]3CCCC[C@H]3O)c3ncnc(N)c23)c1 (single isomer, unassigned) [Compound 286] | 144 nM
6 | Nc1ncnc2c1c(Oc1cc(C(F)(F)F)ccn1)nn2[C@H]1COC[C@@H](N)C1 [Compound 249] | 55 nM
7 | Nc1ncnc2c1c(Oc1cc(C(F)(F)F)ccn1)nn2CC1(C(F)(F)F)CC1 [Compound 244] | 31 nM
8 | COC1CCCCC1n1nc(Oc2cc(C(F)(F)F)ccn2)c2c(N)ncnc21 (stereo not shown) [Compound 236] | 85.6 nM
9 | Nc1ncnc2c1c(Oc1cc(C(F)(F)F)ccn1)nn2CC(F)(F)F [Compound 280] | 38.6 nM
10 | Nc1ncnc2c1c(Oc1cc(Cl)ccn1)nn2C1CCCC1 [Compound 201] | 16.7 nM
11 | Nc1ncnc2c1c(Cc1cccc(Cl)c1)nn2[C@H]1C[C@H](O)C1 [Compound 124, (trans)-3-(4-amino-3-(3-chlorobenzyl)-1H-pyrazolo[3,4-d]pyrimidin-1-yl)cyclobutan-1-ol] | 8.87 nM
12 | Nc1ncnc2c1c(Oc1cc(C(F)(F)F)ccn1)nn2[C@H]1CC[C@H](O)CC1 [Compound 235] | 15.9 nM
13 | CC(C)(C)OC(=O)N1CCC(Cn2nc(Oc3cc(Cl)ccn3)c3c(N)ncnc32)C(F)(F)C1 (stereo not shown) [Compound 212] | 31.2 nM
14 | Nc1ncnc2c1c(Oc1cc(OC(F)(F)F)ccn1)nn2C1CC1 [Compound 169] | 37.7 nM
15 | COc1ccnc(Oc2nn([C@H]3C[C@@H](O)C3)c3ncnc(N)c23)c1 [Compound 168] | 37.1 nM
16 | Nc1ncnc2c1c(Oc1cc(Cl)ccn1)nn2CC1CCNCC1(F)F (stereo not shown) [Compound 213] | 9.7 nM
17 | Nc1ncnc2c1c(Cc1cccc(F)c1)nn2[C@H]1C[C@@H](O)C1 [Compound 132] | 28.4 nM
18 | COc1ccnc(Oc2nn(C3CCOCC3)c3ncnc(N)c23)c1 [Compound 220] | 54.4 nM
19 | CC(C)(C)OC(=O)N1CCCC(n2nc(Oc3cc(Cl)ccn3)c3c(N)ncnc32)C1 (stereo not shown) [Compound 224] | 43.7 nM
20 | Nc1ncnc2c1c(Oc1cc(C3CC3)ccn1)nn2C1CC1 [Compound 165] | 28.9 nM

Row | SMILES | IC50
21 | Nc1ncnc2c1c(Oc1cccc(Cl)c1)nn2[C@H]1C[C@H](F)C1 [Compound 156] | 10 nM
22 | Nc1ncnc2c1c(Oc1cc(C(F)(F)F)ccn1)nn2C1CCCC1 [Compound 192] | 19.2 nM
23 | CO[C@H]1CC[C@H](n2nc(Oc3cc(C(F)(F)F)ccn3)c3c(N)ncnc32)CC1 [Compound 237] | 38.1 nM
24 | Nc1ncnc2c1c(Oc1cc(C(F)(F)F)ccn1)nn2C1CCCCC1 [Compound 200] | 14.7 nM
25 | CCOC(=O)C1(n2nc(Oc3cc(C(F)(F)F)ccn3)c3c(N)ncnc32)CCC1 [Compound 287] | 728 nM
26 | Nc1ncnc2c1c(Oc1cc(Cl)ccn1)nn2[C@H]1C[C@H](O)C1 [Compound 116] | 15.4 nM
27 | COc1ccnc(Oc2nn(C3CCOC3)c3ncnc(N)c23)c1 (stereo not shown) [Compound 219] | 77.4 nM
28 | Nc1ncnc2c1c(Oc1cc(Cl)ccn1)nn2C1CCNCC1 [Compound 188] | 29.7 nM
29 | Nc1ncnc2[nH]nc(Oc3cccc(Cl)c3)c12 [Compound 252] | 77.3 nM
30 | N#Cc1cccc(Oc2nn([C@H]3C[C@H](O)C3)c3ncnc(N)c23)c1 [Compound 178] | 79.6 nM
31 | Nc1ncnc2c1c(Oc1cccc(C(F)(F)F)c1)nn2[C@H]1C[C@@H](O)C1 [Compound 151] | 31.3 nM
32 | Nc1ncnc2c1c(Cc1cccc(F)c1)nn2[C@H]1C[C@H](F)C1 [Compound 161] | 14.2 nM
33 | Nc1ncnc2c1c(Oc1cc(C(F)(F)F)ccn1)nn2[C@H]1CCCC[C@H]1F [Compound 233] | 34.4 nM
34 | Nc1ncnc2c1c(Oc1cc(C(F)(F)F)ccn1)nn2C1CCCNC1 (stereo not shown) [Compound 195] | 56.8 nM
35 | N#Cc1ccnc(Oc2nn(C3CCC(F)(F)CC3)c3ncnc(N)c23)c1 [Compound 203] | 84.8 nM
36 | Nc1ncnc2c1c(Oc1cc(C(F)(F)F)ccn1)nn2C1CCC(N)CC1 (stereo not shown) [Compound 232] | 24.3 nM
37 | Nc1ncnc2c1c(Oc1cc(C(F)(F)F)ccn1)nn2[C@@H]1CC[C@H](N)C1 [Compound 251] | 42.1 nM
38 | Nc1ncnc2c1c(Oc1cc(C(F)(F)F)ccn1)nn2C1CCCCC1(F)F (stereo not shown) [Compound 279] | 35.7 nM
39 | CC(C)(C)n1nc(Oc2cc(C(N)=O)ccn2)c2c(N)ncnc21 [Compound 260] | 40.5 nM
40 | Nc1ncnc2c1c(Oc1cccc(C(F)(F)F)c1)nn2[C@H]1C[C@H](F)C1 [Compound 166] | 28.9 nM

Row | SMILES | IC50
41 | CO[C@H]1CC[C@@H](n2nc(Oc3cc(C(F)(F)F)ccn3)c3c(N)ncnc32)CC1 [Compound 238] | 44.7 nM
42 | NC(=O)c1ccnc(Oc2nn([C@H]3C[C@H](F)C3)c3ncnc(N)c23)c1 [Compound 174] | 69.7 nM
43 | CC(C)(C)n1nc(Cc2c[nH]c3ccccc23)c2c(N)ncnc21 [Compound 254] | 9 nM
44 | Nc1ncnc2c1c(Oc1cc(Cl)ccn1)nn2CC1CC1 [Compound 225] | 9 nM
45 | N#Cc1ccnc(Oc2nn(CC3CCNCC3(F)F)c3ncnc(N)c23)c1 (stereo not shown) [Compound 263] | 39.2 nM
46 | Nc1ncnc2c1c(Oc1cc(C(F)(F)F)ccn1)nn2C1CCC(F)(F)CC1 [Compound 185] | 38.4 nM
47 | Nc1ncnc2c1c(Oc1cc(C(F)(F)F)ccn1)nn2C1CCOCC1 [Compound 198] | 29.4 nM
48 | Nc1ncnc2c1c(Oc1cc(C(F)(F)F)ccn1)nn2C1CCCC1 [Compound 257] | 23.4 nM
49 | COc1ccnc(Oc2nn([C@@H]3CCCC[C@H]3O)c3ncnc(N)c23)c1 (single isomer, unassigned) [Compound 285] | 1400 nM
50 | CC(C)(C)OC(=O)N1CCC(Cn2nc(Oc3cc(C(F)(F)F)ccn3)c3c(N)ncnc32)C(F)(F)C1 (stereo not shown) [Compound 196] | 64.8 nM
51 | Nc1ncnc2c1c(Cc1cccc(Cl)c1)nn2[C@H]1C[C@@H](O)C1 [Compound 130, (cis)-3-(4-amino-3-(3-chlorobenzyl)-1H-pyrazolo[3,4-d]pyrimidin-1-yl)cyclobutan-1-ol] | 15.1 nM
52 | N#Cc1cccc(Oc2nn([C@H]3C[C@H](F)C3)c3ncnc(N)c23)c1 [Compound 173] | 49.8 nM
53 | Nc1ncnc2c1c(Cc1c[nH]c3ccc(F)cc13)nn2[C@H]1C[C@H](F)C1 [Compound 157] | 11 nM
54 | Nc1ncnc2c1c(Oc1cc(C(F)(F)F)ccn1)nn2[C@H]1C[C@H](O)C1 [Compound 113, (trans)-3-(4-amino-3-((4-(trifluoromethyl)pyridin-2-yl)oxy)-1H-pyrazolo[3,4-d]pyrimidin-1-yl)cyclobutan-1-ol] | 26.5 nM
55 | Nc1ncnc2c1c(Oc1cc(Cl)ccn1)nn2C1CCCOC1 (stereo not shown) [Compound 216] | 15.8 nM
56 | Nc1ncnc2c1c(Cc1cccc(C(F)(F)F)c1)nn2[C@H]1C[C@H](O)C1 [Compound 125] | 36 nM
57 | Nc1ncnc2c1c(Cc1cccc(F)c1)cn2[C@H]1C[C@H](O)C1 [Compound 164] | 28.3 nM
58 | Nc1ncnc2c1c(Oc1cc(C(F)(F)F)ccn1)nn2[C@H]1CC[C@@H](N)CC1 [Compound 239] | 23.1 nM
